Structures can show the parent of a compound that is named as a salt.
Legend:
[1] = system: anaphylactic histamine release from lung fragments; assay: Inhibition of anaphylactic histamine release (passively sensitized lung fragments, antigen challenge); type: cell-based, Hartley male guinea pig; conditions: Cavia porcellus, 0.25 h; guinea pig lung fragments; DNP-egg albumin 0.3 μg/ml; compound added 10 min before antigen challenge; 37° C.; read-out: 25%-inhibitory conc. (anaphylactic histamine release)
Description: Inhibition of anaphylactic histamine release
Hartley male guinea pigs weighing about 450 g which were passively sensitized with an anti-DNP-egg albumin guinea pig serum were killed with a thiopentbarbital anesthetia. Their lungs were perfused by way of the pulmonary artery with a Tyrode's solution. The lungs were removed and fragmented. A definite weight of 100 mg lung fragments, which was distributed into individual tubes and suspended in 1 ml of Tyrode's solution, was challenged with the antigen (DNP-egg albumin, final concentration: 0.3 μg/ml) at 37° C. for 15 min. The test compounds obtained in Example, which were dissolved or suspended in Tyrode's solution, were added 10 min before antigen challenge. The reaction was stopped by immersing in ice cold water, and then centrifuged. The amount of histamine in the supernatant fluid was measured by using fluoremetric method according to Shore et al.
A: amount of histamine released by the antigen stimulation in the presence of a compound of the present invention
B: amount of histamine released spontaneously
C: amount of histamine released by the antigen stimulation.

isolated heart = assay: Langendorff perfused isolated heart: perfusion pressure, contractive force, heart rate; set-up: species or system Wistar male rat; conditions: for Contractive force (Δ %) / Heart rate (Δ %) / Perfusion pressure (Δ %): means value ± S.D., n = 3-4
Description: Hearts were isolated from Std; Wistar male rats weighing 200-300 g (9-10 weeks old). The hearts were perfused using Langendorff's apparatus at a flow rate of 8 ml/min. As a perfusate, Krebs-Henseleit-bicarbonate solution (37° C., pH 7.4) containing 11 mM glucose, oxygenated with a mixed gas of 95% O2 and 5% CO2 was used. The heart was preloaded with an initial resting tension of 2.0 g and paced at 200-300 beats min^-1. After the hearts were allowed to be stable for 30-60 minutes, 0.1 ml of a solution of each test compound in 10% DMSO was added thereto to be a concentration of 0.1, 1.0, 10 or 100 μg of each compound per heart.
Myocardial contractile force was isometrically measured by means of a force-displacement transducer (Type: TB-612T, made by Nihon Kohden Kogyo KK) connected to the apex of the heart through a thread. Coronary perfusion pressure was monitored by an electric manometer (Type: MPU-0.5, made by Nihon Kohden Kogyo KK) connected to a side branch of the aortic cannule.
[formula] A: value before adding a test compound B: value after adding a test compound

[2] = molecular target: T1, histamine-induced constriction of tracheal smooth muscle (Cavia porcellus, UniProt P31389); assay: Antihistaminic activity (isolated tracheal smooth muscle chain strips, histamine constriction); type: cell-based, Hartley male guinea pig; conditions: guinea pig tracheal strip; compound 5 min prior to histamine; Van Rossum; read-out: pA2 (converted)
T1 construct: Isolated tracheal smooth muscle chain strips were prepared by a usual method; from tissue; host or cells: isolated tracheal smooth muscle chain strips of Hartley male guinea pigs
Description: Hartley male guinea pigs weighing 500-600 g were used. Isolated tracheal smooth muscle chain strips were prepared by a usual method and suspended in 2 ml organ bath of Tyrode's solution aerated with 95% O2.5 % CO2 at 37° C. Each strip was attached to an isotonic transducer (made by Nihon Koden Kogyo KK) with a load of 0.5 g. After almost constant contraction, histamine was added cumulatively, until maximum constriction was obtained. The constriction of tracheal strip was recorded by Servocorder (made by Giraphtec KK). The strip was washed with Tyrode's solution and allowed to stabilize. Test compound was to the bath 5 min prior to the addition of histamine and the response curve to the histamine was repeated. The pA2 values were calculated using the techniques of Van Rossum.

[3] = Acute oral toxicity (LD50); conditions: mouse, in vivo, mice 22-27 g, ddY, male, 5 weeks
Description: The LD50 of the compounds obtained in Examples 1, 34, 37, 40 and 44 were more than 500 mg/kg when these compounds were given orally to mice weighing 22-27 g (ddY, male, 5 weeks).

[4] = 1 μg/heart, ** p <0.01 vs control
[5] = 10 μg/heart, ** p <0.01 vs control
[6] = 100 μg/heart, ** p <0.01 vs control

T1 sequence (P31389 whole entry): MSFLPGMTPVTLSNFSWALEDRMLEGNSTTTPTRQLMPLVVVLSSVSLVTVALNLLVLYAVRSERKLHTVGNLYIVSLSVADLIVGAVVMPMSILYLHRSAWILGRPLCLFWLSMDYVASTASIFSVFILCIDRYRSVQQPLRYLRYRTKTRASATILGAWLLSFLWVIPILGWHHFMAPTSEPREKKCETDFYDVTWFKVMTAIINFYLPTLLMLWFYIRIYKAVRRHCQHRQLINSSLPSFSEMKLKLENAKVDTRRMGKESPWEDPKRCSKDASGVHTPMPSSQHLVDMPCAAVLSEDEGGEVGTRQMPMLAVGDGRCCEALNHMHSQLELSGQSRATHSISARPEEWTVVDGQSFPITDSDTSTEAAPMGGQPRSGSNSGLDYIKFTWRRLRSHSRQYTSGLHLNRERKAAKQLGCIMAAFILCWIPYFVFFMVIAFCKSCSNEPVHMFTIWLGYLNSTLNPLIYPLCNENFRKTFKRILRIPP

SMILES	IC25 [1]	Contractive force (Δ %) (isolated heart; 0.1 μg/heart)	Heart rate (Δ %) (isolated heart; 0.1 μg/heart)	Heart rate (Δ %) (isolated heart; 1 μg/heart)	Contractive force (Δ %) (isolated heart; [4])	Perfusion pressure (Δ %) (isolated heart; [4])	Contractive force (Δ %) (isolated heart; [5])	Heart rate (Δ %) (isolated heart; [5])	Perfusion pressure (Δ %) (isolated heart; [5])	Contractive force (Δ %) (isolated heart; [6])	Heart rate (Δ %) (isolated heart; [6])	Perfusion pressure (Δ %) (isolated heart; [6])	Kb [2]	LD50 [3]	other results
CC(C)c1ccc2oc3nc(N)c(C(=O)O)cc3c(=O)c2c1 [Amlexanox, reference compound]	30000 nM	–	–	–	–	–	–	–	–	–	–	–	–	–	–
COc1ccc([C@@H]2Sc3ccccc3N(CCN(C)C)C(=O)[C@@H]2OC(C)=O)cc1 [Diltiazem hydrochloride, reference compound]	–	3.5 ± 6.9%	-2.7 ± 1.8%	-3.5 ± 2.4%	7.0 ± 16.1%	-32.1 ± 6.9%	-67.1 ± 17.5%	-25.9 ± 30.3%	-47.1 ± 1.4%	-86.5 ± 7.0%	-71.4 ± 11.9%	-48.8 ± 1.4%	–	–	contractive force (in words) (isolated heart; 10 μg/heart): significant lowerings; heart rates (in words) (isolated heart; 10 μg/heart): significant lowerings
CS(=O)(=O)Nc1ccccc1OCCCN1CCC(OC(c2ccccc2)c2ccccc2)CC1 [Example 1, 4-diphenylmethoxy-1-[3-(2-methanesulfonylaminophenoxy)propyl]piperidine]	1000 nM	2.0 ± 3.6%	0.7 ± 1.2%	-0.7 ± 1.2%	11.9 ± 2.4%	-24.8 ± 3.0%	11.8 ± 2.3%	-0.7 ± 1.2%	-42.9 ± 3.2%	-25.0 ± 6.8%	-16.6 ± 15.6%	-49.0 ± 4.8%	2 nM	> 500 mg/kg	Perfusion pressure (Δ %) (isolated heart; 0.1 μg/heart): -8.39 ± 3.4%
CS(=O)(=O)Nc1ccccc1OCCCN1CCC(OC(c2ccc(Cl)cc2)c2ccccn2)CC1 (stereo not drawn) [Example 33, 4-[(4-chlorophenyl)-2-pyridylmethoxy]-1-[3-(2-methanesulfonylaminophenoxy)propyl]piperidine]	–	5.0 ± 4.3%	-1.2 ± 2.1%	-1.9 ± 1.8%	13.3 ± 1.9%	-19.2 ± 2.2%	16.0 ± 4.5%	-4.6 ± 4.7%	-39.1 ± 5.4%	-46.2 ± 13.4%	-17.2 ± 10.1%	-40.1 ± 5.2%	–	–	Perfusion pressure (Δ %) (isolated heart; 0.1 μg/heart): -7.0 ± 6.1%
CS(=O)(=O)Nc1ccccc1OCCCN1CCC(OC(c2ccccc2)c2cccnc2)CC1 (stereo not drawn) [Example 34 (fumarate)]	1000 nM	–	–	–	–	–	–	–	–	–	–	–	0.126 nM	–	–
CS(=O)(=O)Nc1ccccc1OCCCN1CCC(OC(c2ccccc2)c2cccnc2)CC1 (stereo not drawn) [Example 34, 4-(phenyl-3-pyridylmethoxy)-1-[3-(2-methanesulfonylaminophenoxy)propyl]piperidine]	–	–	–	–	–	–	–	–	–	–	–	–	–	> 500 mg/kg	–
CS(=O)(=O)Nc1ccccc1OCCCN1CCC(OC(c2ccccc2)c2cccs2)CC1 (stereo not drawn) [Example 36 (fumarate)]	100 nM	–	–	–	–	–	–	–	–	–	–	–	2.51 nM	–	–
CC(CCOc1ccccc1NS(C)(=O)=O)N1CCC(OC(c2ccccc2)c2cccs2)CC1 (stereo not drawn) [Example 37, 4-(phenyl-2-thienylmethoxy)-1-[3-(2-methanesulfonylaminophenoxy)-1-methylpropyl]piperidine]	100 nM	–	–	–	–	–	–	–	–	–	–	–	3.98 nM	> 500 mg/kg	–
CS(=O)(=O)Nc1ccccc1OC/C=C\CN1CCC(OC(c2ccccc2)c2cccs2)CC1 (stereo not drawn) [Example 40, 4-(phenyl-2-thienylmethoxy)-1-[4-(2-methanesulfonylaminophenoxy)-2(Z)-butenyl]piperidine]	100 nM	–	–	–	–	–	–	–	–	–	–	–	6.31 nM	> 500 mg/kg	–
CS(=O)(=O)Nc1ccccc1OCCCN1CCC(OC(c2ccsc2)c2ccsc2)CC1 [Example 44 (fumarate)]	30 nM	–	–	–	–	–	–	–	–	–	–	–	2.51 nM	–	–
CS(=O)(=O)Nc1ccccc1OCCCN1CCC(OC(c2ccsc2)c2ccsc2)CC1 [Example 44, 4-di(3-thienyl)methoxy-1-[3-(2-methanesulfonylaminophenoxy)propyl]piperidine]	–	8.8 ± 2.5%	-5.7 ± 1.4%	-3.6 ± 4.1%	19.1 ± 5.7%	-28.9 ± 3.0%	16.2 ± 11.3%	-6.3 ± 1.5%	-47.9 ± 4.8%	-46.3 ± 19.4%	-59.9 ± 11.1%	-55.8 ± 3.5%	–	> 500 mg/kg	Perfusion pressure (Δ %) (isolated heart; 0.1 μg/heart): -6.0 ± 13.7%
O=c1[nH]c2ccccc2n1CCCN1CCN(C(c2ccccc2)c2ccccc2)CC1 [Oxatomide, reference compound]	100000 nM	–	–	–	–	–	–	–	–	–	–	–	1.26 nM	–	–
